Results: patent US7691874B2, “Neuroprotective properties of dextrorotatory morphinans” (priority 2004, dated 2010)
Marks after values point to notes of the source that are not given here.

Experiments:
[1] = system: LPS-treated mice; assay: LPS model, HM versus L-dopa/carbidopa: microglia F4/80-like immunoreactivity; assay type: in vivo; details: substantia nigra
[2] = system: MPTP-treated mice; assay: Striatal dopamine and metabolites (HPLC-EC) in MPTP-treated mice; details: for Concentration DA in the striatum: mean ± S.E.M., 8 animals
[3] = system: cocaine-treated mice; assay: Cocaine-induced hyperlocomotion; assay type: in vivo
Method in brief: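 Morphinans (15 and 30 mg/kg, i.p.) or dimemorfan (20 mg/kg, i.p.) given 30 minutes before cocaine (5 and 20 mg/kg, i.p.); treatments continued for 7 days. Locomotion scored as central activity (non-specific movement in box center) and marginal activity (circling).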

[4] = system: cocaine-treated mice; assay: Cocaine-induced behavioural sensitization with CB1 modulation
[5] = system: LPS-treated mice; assay: LPS model, HM versus L-dopa/carbidopa: mortality; assay type: in vivo; details: intrastriatal LPS 2 μg x 4/head; 2 weeks
Method: Mortality was observed by 2 weeks after LPS injection. *P<0.01 vs. Saline+LPS (x^2-test).
The neuroprotective effect of HM was compared with L-dopa, carbidopa, or carbidopa plus L-dopa in response to dopaminergic damage induced by LPS. Intrastriatal injection of LPS (2 μg×4/head) produced high mortality (ten animals died out of twelve animals in the 2 weeks after LPS administration).

[6] = system: MA-treated mice; assay: MA-induced conditioned place preference with CB1 modulation
Method: The control mice received an i.p. injection of saline just before entering the white or black compartment. Cocaine or MA dissolved in saline was administered immediately before the mice were placed in the white compartment. To test the effect of cocaine alone or MA alone or in combination with exemplified morphinans (DM, HM, AM, CM or DF), each morphinan was administered 2 hr before cocaine or saline injection.
On day 1, the mice were pre-exposed to the test apparatus for 5 min. The guillotine doors were raised and the mice were allowed to move freely between the two compartments. On day 2, the time each mouse spent in each compartment was recorded for 15 min. On days 3, 5, 7, 9, 11, and 13, the mice were injected with cocaine before being confined to the white compartment, the non-preferred side, for 20 min. On days 4, 6, 8, 10, and 12, the mice were injected with saline before being confined to the black compartment, the preferred side, for 20 min. On day 14, the guillotine doors were raised. The mice were initially placed in the tunnel and the time spent by the mice in the two compartments was recorded for 15 min. The scores were calculated from the differences in the time spent in the white compartment in the testing and pre-testing phases.

[7] = system: MA-treated mice; assay: MA-induced behavioural sensitization
Method: Morphinans (20 mg/kg, i.p.) were administered last 3 days of wash-out period.

[8] = system: LPS-treated mice; assay: LPS-induced loss of nigral TH-IR with CB1 agonist/antagonist and HM; assay type: in vivo; details: given alone
Method: Mortality was observed by 2 weeks after bilateral LPS intrastriatal injection (one side: 2 μg×2).

[9] = system: LPS-treated mice; assay: LPS model, HM versus L-dopa/carbidopa: nigral TH-IR; details: mouse, in vivo
Text: FIG. 27 show effects of carbidopa, L-dopa, carbidopa+L-dopa and HM on the nigral tyrosine hydroxylase-like immunoreactivity (TH-IR) of the mice treated with LPS.

[10] = system: MPTP-treated mice; assay: Nigral tyrosine hydroxylase-like immunoreactivity in MPTP-treated mice; details: 24 mg/kg i.p.
Method: Each morphinan was administered 30 min prior to every injection of MPTP for last three days (from day 4th to day 7th). Animals were sacrificed 24 h after the last MPTP treatment.

[11] = system: kainate or maximal electric shock; details: kainate (24) or maximal electric shock (27); cited from earlier work
[12] = system: LPS-treated mice; assay: Nigral TH-IR in LPS-treated mice; assay type: in vivo; details: 24 mg/kg i.p.
Text: FIGS. 8A-8B. […] Magnification=40×.
(§1) Control animals received striatal injection with PBS.

[13] = system: MA-treated mice; assay: MA model, HM versus L-dopa/carbidopa: locomotor activity; assay type: in vivo; details: 3 days after MA
[14] = system: MA-treated mice; assay: Hypokinesia induced by MA; assay type: in vivo; details: 12 and 24 mg/kg; 3 days after final MA
[15] = system: MA-treated mice; assay: Nigral TH-IR in MA-treated mice; details: 24 mg/kg i.p.
[16] = system: C57 BL/6 mice; assay: Locomotor activity and locomotor pattern following repeated administration of morphinans or PCP; assay type: in vivo
[17] = system: LPS-treated mice; assay: LPS-induced mortality with CB1 agonist/antagonist and HM; assay type: in vivo; details: given alone: HM 20, ACEA 2, AM-251 0.3 mg/kg; 2 weeks after bilateral intrastriatal LPS
[18] = system: LPS-treated mice; assay: Striatal dopamine and metabolites in LPS-treated mice; assay type: in vivo; details: for Concentration DA in the striatum: 3 weeks after LPS
Text: as §1
Mice were sacrificed at 3 weeks after LPS treatment.

Oc1ccc2c(c1)[C@@]13CCCC[C@H]1[C@@H](C2)NCC3 [HM, 3-hydroxymorphinan]
effect on LPS-induced increase in F4/80-like immunoreactivity (microglia) [1]: most effective in attenuating LPS-induced increase in F4/80-like immunoreactivity
effect on MPTP-induced reductions in striatal DA, DOPAC and HVA ([2]; 24 mg/kg pretreatment): significantly protected
Concentration DOPAC in the striatum ([2]; morphinan 12 (mg/kg) + MPTP): 68 ± 7 ng/100 mg wet tissue
Concentration HVA in the striatum ([2]; morphinan 12 (mg/kg) + MPTP): 84 ± 8 ng/100 mg wet tissue
Concentration DA in the striatum ([2]; morphinan 12 (mg/kg) + MPTP): 582 ± 74 ng/100 mg wet tissue
Concentration DOPAC in the striatum ([2]; morphinan 24 (mg/kg) + MPTP): 98 ± 9^c ng/100 mg wet tissue
Concentration HVA in the striatum ([2]; morphinan 24 (mg/kg) + MPTP): 104 ± 10^c ng/100 mg wet tissue
Concentration DA in the striatum ([2]; morphinan 24 (mg/kg) + MPTP): 896 ± 79^c ng/100 mg wet tissue
effect on locomotor activity induced by low dose of cocaine ([3]; cocaine 5 mg/kg i.p. x 7 days, morphinan 15 or 30 mg/kg (DF 20 mg/kg) i.p.): consistently attenuated locomotor activity induced by a low dose of cocaine
effect on hyperactivity induced by high dose of cocaine ([3]; cocaine 20 mg/kg i.p. x 7 days, morphinan 15 or 30 mg/kg i.p. 30 min before): not uniform
behavioural effects of the compound itself ([4]; AM 251 0.3, ACEA 2, HM 20 mg/kg, no cocaine): Neither saline-, AM 251 (0.3 mg/kg)-, ACEA (2 mg/kg)-treated nor HM (20 mg/kg)-treated animals showed any specific behavioural effects
effect on cocaine-induced behavioural sensitization ([4]; cocaine 10 mg/kg/day i.p. x 7, challenge one month later): significantly reduced
effect on mortality induced by LPS [5]: most pronounced
CPP response of the compound itself ([6]; AM 251 0.3, HM 20, ACEA 2 mg/kg i.p., no MA): Neither saline-, AM 251 (0.3 mg/kg, i.p.)-treated nor HM (20 mg/kg)-treated animals showed any CPP responses
effect on MA-induced CPP ([6]; mouse, in vivo): significantly reduced the CPP produced by MA
behavioural effects of the compound itself ([7]; AM 251 0.3, ACEA 2, HM 20 mg/kg, no MA (Ex. 3.14)): Neither saline-, AM 251 (0.3 mg/kg)-, ACEA (2 mg/kg)-treated nor HM (20 mg/kg)-treated animals showed any behavioural effects
effect on MA-induced behavioural sensitization (CB1 modulation study) ([7]; MA 1 mg/kg i.p./day x 7, challenge one week later (Ex. 3.14)): significantly reduced
effect on LPS-induced reduction in nigral TH-IR [8]: Attenuates LPS-Induced Reduced Tyrosine Hydroxylase-like Immunoreactivity
effect on LPS-induced loss in nigral TH-IR [9]: most effective in attenuating LPS-induced reduction in TH-IR
effect on MPTP-induced decrease in nigral TH-positive cells [10]: significantly attenuated the decrease in TH-positive cells
anticonvulsant effect [11]: did not show any anticonvulsant effect
effect on LPS-induced reduction in nigral TH-positive cells [12]: significantly attenuated the reduction in TH-positive cells
effect on MA-induced reduction in locomotor activity [13]: more efficacious than that of L-dopa or carbidopa+L-dopa
effect on MA-induced reduction in locomotor activity [14]: appeared to be the most effective in preventing reduction in motor activity
effect on MA-induced decrease in nigral TH-positive cells [15]: significantly attenuated the decrease in TH-positive cells
locomotor pattern (tracings) ([16]; 40 mg/kg i.p. (PCP 5 mg/kg), FIG. 3): did not produce significant marginal activity
marginal activity (circling behaviour; absolute turn angular) ([16]; 20 or 40 mg/kg i.p./day x 7 (PCP 2.5 or 5 mg/kg), 3-min period, vs saline): did not significantly affect marginal activity
locomotor activity (total distance moved) ([16]; 20 or 40 mg/kg i.p./day x 7 days, 30 min after final treatment, vs saline): comparable to that with saline
effect on LPS-induced mortality [17]: No animal died
effect on LPS-induced reductions in striatal DA, DOPAC and HVA ([18]; 24 mg/kg pretreatment): significantly protected
Concentration DOPAC in the striatum ([18]; morphinan 12 (mg/kg) + LPS): 83 ± 10 ng/100 mg wet tissue
Concentration HVA in the striatum ([18]; morphinan 12 (mg/kg) + LPS): 86 ± 8 ng/100 mg wet tissue
Concentration DA in the striatum ([18]; morphinan 12 (mg/kg) + LPS, mean ± S.E.M., 8 animals): 682 ± 70 ng/100 mg wet tissue
Concentration DOPAC in the striatum ([18]; morphinan 24 (mg/kg) + LPS): 112 ± 11^d ng/100 mg wet tissue
Concentration HVA in the striatum ([18]; morphinan 24 (mg/kg) + LPS): 102 ± 10^b ng/100 mg wet tissue
Concentration DA in the striatum ([18]; morphinan 24 (mg/kg) + LPS): 916 ± 98^d ng/100 mg wet tissue
